Assay [1] has as its target GPR160 (Homo sapiens, UniProt Q9UJ42). In kind it is cell-based. On the procedure:
(§1) EP4R. e) EP4R functional cyclic AMP production assay. Dose-response curves were obtained for 74 (KB […]
(§2) production assays for the prostaglandin D2 (PGD2) receptor or the Thromboxane A2 (TP) receptor, respectively. AZD1981 and Ramatroban were used as control PGD2 and TP receptor antagonists, respectively. U46619 served as a TP receptor agonist. H) GPCRome off-target screening of 74 at 10 µM. i) Potential off-targets that met the activity threshold (3-fold of increase of basal) in the GPCRome screen (GPR174, GPR160, or NMUR2) were investigated with full dose-response curves in PRESTO-Tango […]
(§3) Data in a)-d), f)-g), i) represents mean ± SEM of three independent experiments. Data in e) represents two technical replicates. Data in h) represents mean ± SEM of four technical replicates. Source data are provided as a Source Data file.
(§4) (1 picture or pasted object on this page, not shown here)

Assay [2] concerns the target NMUR2 (Homo sapiens, UniProt Q9GZQ4). In kind it is cell-based. On the procedure:
as §1, §2, §3, §4

In assay [3] the target is GPR174 (Homo sapiens, UniProt Q9BXC1). In kind it is cell-based. On the procedure:
as §1, §2, §3, §4

For assay [4], the system named is mice. Type of assay: in vivo. The note with it: for Carrageenan-induced allodynia, mechanical threshold (von Frey): individual animals.

SMILES strings stand for the structures. Where “and” joins values, the source holds several entries; their conditions need not be identical. Identical values can stand only once. Entries after “also recorded” stand apart in the source; their conditions may differ. Like-named read-outs stand apart in the source and are kept apart here.

Sequence of GPR174 (Q9BXC1 whole entry): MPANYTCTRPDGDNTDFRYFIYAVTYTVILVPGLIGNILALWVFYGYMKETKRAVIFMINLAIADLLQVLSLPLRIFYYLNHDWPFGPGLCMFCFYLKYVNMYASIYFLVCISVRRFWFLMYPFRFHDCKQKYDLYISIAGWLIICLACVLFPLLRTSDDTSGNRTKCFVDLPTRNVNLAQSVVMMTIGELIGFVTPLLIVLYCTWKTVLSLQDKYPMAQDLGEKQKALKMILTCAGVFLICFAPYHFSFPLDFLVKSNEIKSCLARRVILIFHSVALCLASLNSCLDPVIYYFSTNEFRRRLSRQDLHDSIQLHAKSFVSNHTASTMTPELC
Sequence of NMUR2 (Q9GZQ4 whole entry): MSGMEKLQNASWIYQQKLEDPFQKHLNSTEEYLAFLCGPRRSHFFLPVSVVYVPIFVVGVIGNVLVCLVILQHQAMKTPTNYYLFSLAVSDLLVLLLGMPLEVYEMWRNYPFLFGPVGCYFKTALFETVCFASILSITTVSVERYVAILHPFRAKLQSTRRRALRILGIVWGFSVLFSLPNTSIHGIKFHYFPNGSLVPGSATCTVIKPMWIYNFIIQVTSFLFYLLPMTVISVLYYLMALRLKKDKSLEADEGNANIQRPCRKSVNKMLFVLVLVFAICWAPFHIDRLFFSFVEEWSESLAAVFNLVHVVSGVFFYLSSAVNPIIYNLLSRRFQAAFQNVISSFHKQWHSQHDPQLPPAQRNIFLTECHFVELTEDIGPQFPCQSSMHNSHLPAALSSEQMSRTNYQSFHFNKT
Sequence of GPR160 (Q9UJ42 whole entry): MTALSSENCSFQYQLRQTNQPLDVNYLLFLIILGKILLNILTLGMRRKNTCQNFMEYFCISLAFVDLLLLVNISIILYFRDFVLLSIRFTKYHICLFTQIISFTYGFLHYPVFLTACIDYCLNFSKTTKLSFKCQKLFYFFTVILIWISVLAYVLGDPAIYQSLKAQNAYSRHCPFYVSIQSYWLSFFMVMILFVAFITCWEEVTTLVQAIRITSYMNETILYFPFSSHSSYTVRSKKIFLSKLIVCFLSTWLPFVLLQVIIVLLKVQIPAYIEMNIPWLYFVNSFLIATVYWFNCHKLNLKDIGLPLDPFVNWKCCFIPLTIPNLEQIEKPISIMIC

In the case of `O=C(O)C1CCC2(CC1)CC(Nc1ncnc3[nH]c4c(F)cccc4c13)C2` (centres unmarked) [Compound 74, OC(=O)C1CCC2(CC(C2)NC=3N=CN=C4NC=5C(F)=CC=CC5C34)CC1], the “activity in full dose-response” value in assay [1], in assay [2] and in assay [3] was “no activity” in each case.
For `O=C([O-])C1CCC2(CC1)CC(Nc1ncnc3[nH]c4c(F)cccc4c13)C2.[Na+]` (centres unmarked) [Compound 77, [Na+].[O-]C(=O)C1CCC2(CC(C2)NC=3N=CN=C4NC=5C(F)=CC=CC5C34)CC1], the “Carrageenan-induced allodynia, mechanical threshold (von Frey)” value in assay [4] (10 mg/kg IP) is 27 and 58.1 and 18.1 and 18.3 and 32 and 31.3 and 24.3 and 20.9 and 32.5 and 40; in assay [4] (30 mg/kg IP) it was 30.3 and 39.4 and 44.8 and 39.1 and 40.4; in assay [4] (30 mg/kg PO) it was 45.8 and 24.2 and 57.3 and 32.3 and 42.9 and 24.5 and 10.4 and 51.4 and 11.4 and 35.4. In addition, the “effect on carrageenan-mediated mechanical allodynia” value is listed as “equal anti-allodynic effects; also recorded: equally reduce carrageenan-mediated mechanical allodynia” in assay [4] (10 mg/kg i.p.) and “significant anti-allodynic properties” in assay [4] (30 mg/kg i.p. or p.o.).

(Values after PMC10700596 (Nature Communications, 2023).)
